Laboratory results from US20080009435A1, “Synthetic methods for aplidine and new antitumoral derivatives, methods of making and using them” (Pharma Mar, S.A., a Spain corporation, priority 2000, published 2008).
*1 amine or outer side, *2 acyl side, *3 side chain or, on linkers, in order; H or OH if unused. Where a SMILES comes first, the peptide text is derived from it. Bridges are numbered along the chain shown (N, C = ends). [ ]: non-standard residue; d: D form. The star is where a group is joined. ξ: configuration not given here. X1 = CC[C@H](C)[C@@H](N[*:1])[C@@H](O)CC(=O)O[C@H](C(=O)[C@H](C)C(=O)[*:2])C(C)C; X2 = CC[C@H](C)[C@@H](N[*:1])[C@@H](O)CC(=O)[*:2]; X3 = C[C@H](O[Si](C)(C)C(C)(C)C)C(=O)*; NMeY = CN[C@@H](Cc1ccc(O)cc1)C(=O)O; X6 = O=C1NC2CSC(CCCCC(=O)*)C2N1; dNMeL = CN[C@H](CC(C)C)C(=O)O; Hiv = CC(C)[C@H](O)C(=O)O; Isobutyryl = CC(C)C(=O)*; dLac = C[C@@H](O)C(=O)O; Hexanoyl = CCCCCC(=O)*; Boc = CC(C)(C)OC(=O)*; Lac = C[C@H](O)C(=O)O; CO = O=C([*:1])[*:2]; X5 = S=C(Nc1ccccc1)*; Butyryl = CCCC(=O)*; NHPh = c1ccc(N*)cc1; ξP = O=C(O)C1CCCN1; Ms = CS(=O)(=O)*; NHBu = CCCCN*

Assays:
[1] = system: A549 human lung carcinoma; experiment: Cytotoxicity IC50 (after Berjeron et al); details: Homo sapiens, A549, read-out: Cytotoxicity of aplidine derivatives IC50 (Molar) A549
Description: (§1) Methodology: after Berjeron et al, Biochem and Bioph Res. Comm., 1984, 121, 3, 848-854.
(§2) P388=Murine lymphoma. A549=human lung carcinoma. HT-29=human colon carcinoma. MEL-28=human melanoma.
(§3) A549=human lung carcinoma. HT-29=human colon carcinoma. MEL-28=human melanoma.

[2] = system: HT-29 human colon carcinoma; experiment: Cytotoxicity IC50 (after Berjeron et al); details: Homo sapiens, HT-29, read-out: Cytotoxicity of aplidine derivatives IC50 (Molar) HT29
Description: as §1, §2, §3

Compound	IC50 [1] [nM]	IC50 [2] [nM]
CC[C@H](C)[C@H]1NC(=O)[C@@H](NC(=O)[C@@H](CC(C)C)N(C)C(=O)CCCCC2SCC3NC(=O)NC32)[C@@H](C)OC(=O)[C@H](Cc2ccc(OC)cc2)N(C)C(=O)[C@@H]2CCCN2C(=O)[C@H](CC(C)C)NC(=O)[C@@H](C)C(=O)[C@H](C(C)C)OC(=O)C[C@@H]1O (stereo partly drawn) [8BISAPL1, [Biotin]^8-didemnin A] (X6-[dNMeL]T[X1]LP[NMeY](Me); ester 2-C)	4.27	4.27
CCCC(=O)N(C)[C@H](CC(C)C)C(=O)N[C@@H]1C(=O)N[C@H]([C@@H](C)CC)[C@@H](O)CC(=O)O[C@@H](C(C)C)C(=O)N[C@@H](CC(C)C)C(=O)N2CCC[C@H]2C(=O)N(C)[C@@H](Cc2ccc(OC)cc2)C(=O)O[C@@H]1C [8BSHPL1, [Hiv]^3-[Butyryl]^8-didemnin A] (Butyryl-[dNMeL]T[X2][Hiv]LP[NMeY](Me); ester 2-C)	1.04	1.04
CCCCNC(=S)N(C)[C@H](CC(C)C)C(=O)N[C@@H]1C(=O)N[C@H]([C@@H](C)CC)[C@@H](O)CC(=O)O[C@@H](C(C)C)C(=O)[C@H](C)C(=O)N[C@@H](CC(C)C)C(=O)N2CCC[C@H]2C(=O)N(C)[C@@H](Cc2ccc(OC)cc2)C(=O)O[C@@H]1C [8BTSAPL1, [Butylthiourea]^8-didemnin A]	0.945	0.945
CCCCNC(=O)N(C)[C@H](CC(C)C)C(=O)N[C@@H]1C(=O)N[C@H]([C@@H](C)CC)[C@@H](O)CC(=O)O[C@@H](C(C)C)C(=O)[C@H](C)C(=O)N[C@@H](CC(C)C)C(=O)N2CCC[C@H]2C(=O)N(C)[C@@H](Cc2ccc(OC)cc2)C(=O)O[C@@H]1C [8BUSAPL1, [Butylurea]^8-didemnin A] ({NHBu-CO}-[dNMeL]T[X1]LP[NMeY](Me); ester 2-C)	0.0959	0.0959
CCCCCC(=O)N(C)[C@H](CC(C)C)C(=O)N[C@@H]1C(=O)N[C@H]([C@@H](C)CC)[C@@H](O)CC(=O)O[C@@H](C(C)C)C(=O)N[C@@H](CC(C)C)C(=O)N2CCC[C@H]2C(=O)N(C)[C@@H](Cc2ccc(OC)cc2)C(=O)O[C@@H]1C [8HSHPL1, [Hiv]^3-[hexanoyl]^8-didemnin A] (Hexanoyl-[dNMeL]T[X2][Hiv]LP[NMeY](Me); ester 2-C)	10.1	10.1
CC[C@H](C)[C@H]1NC(=O)[C@@H](NC(=O)[C@@H](CC(C)C)N(C)C(=O)C(C)C)[C@@H](C)OC(=O)[C@H](Cc2ccc(OC)cc2)N(C)C(=O)[C@@H]2CCCN2C(=O)[C@H](CC(C)C)NC(=O)[C@H](C(C)C)OC(=O)C[C@@H]1O [8ISHPL1, [Hiv]^3-[isobutyryl]^8-didemnin A] (Isobutyryl-[dNMeL]T[X2][Hiv]LP[NMeY](Me); ester 2-C)	0.522	0.522
CC[C@H](C)[C@H]1NC(=O)[C@@H](NC(=O)[C@@H](CC(C)C)N(C)C(=O)C(C)C)[C@@H](C)OC(=O)[C@H](Cc2ccc(OC)cc2)N(C)C(=O)[C@@H]2CCCN2C(=O)[C@H](CC(C)C)NC(=O)[C@H](C(C)C)NC(=O)C[C@@H]1O [8ISVPL1, [Val]^3-[Isobutyryl]^8-didemnin A] (Isobutyryl-[dNMeL]T[X2]VLP[NMeY](Me); ester 2-C)	0.105	0.105
CC[C@H](C)[C@H]1NC(=O)[C@@H](NC(=O)[C@@H](CC(C)C)N(C)S(C)(=O)=O)[C@@H](C)OC(=O)[C@H](Cc2ccc(OC)cc2)N(C)C(=O)[C@@H]2CCCN2C(=O)[C@H](CC(C)C)NC(=O)[C@@H](C)C(=O)[C@H](C(C)C)OC(=O)C[C@@H]1O [8MSAPL1, [Methylsulphonyl]^8-didemnin A] (Ms-[dNMeL]T[X1]LP[NMeY](Me); ester 2-C)	0.979	0.979
CC[C@H](C)[C@H]1NC(=O)[C@@H](NC(=O)[C@@H](CC(C)C)N(C)C(=O)[C@@H]2CCCN2C(=O)OC(C)(C)C)[C@@H](C)OC(=O)[C@H](Cc2ccc(OC)cc2)N(C)C(=O)[C@@H]2CCCN2C(=O)[C@H](CC(C)C)NC(=O)[C@H](C(C)C)OC(=O)C[C@@H]1O [8PSHPL2, [Hiv]^3-[Boc-Pro]^8-didemnin A] (Boc-P[dNMeL]T[X2][Hiv]LP[NMeY](Me); ester 3-C)	0.922	0.922
CC[C@H](C)[C@H]1NC(=O)[C@@H](NC(=O)[C@@H](CC(C)C)N(C)C(=S)Nc2ccccc2)[C@@H](C)OC(=O)[C@H](Cc2ccc(OC)cc2)N(C)C(=O)[C@@H]2CCCN2C(=O)[C@H](CC(C)C)NC(=O)[C@@H](C)C(=O)[C@H](C(C)C)OC(=O)C[C@@H]1O [8PTSAPL1, [Pheylthiourea]^8-didemnin A] (X5-[dNMeL]T[X1]LP[NMeY](Me); ester 2-C)	0.927	0.927
CC[C@H](C)[C@H]1NC(=O)[C@@H](NC(=O)[C@@H](CC(C)C)N(C)C(=O)Nc2ccccc2)[C@@H](C)OC(=O)[C@H](Cc2ccc(OC)cc2)N(C)C(=O)[C@@H]2CCCN2C(=O)[C@H](CC(C)C)NC(=O)[C@@H](C)C(=O)[C@H](C(C)C)OC(=O)C[C@@H]1O [8PUSAPL1, [Phenylurea]^8-didemnin A] ({NHPh-CO}-[dNMeL]T[X1]LP[NMeY](Me); ester 2-C)	0.0942	0.0942
CC[C@H](C)[C@H]1NC(=O)[C@@H](NC(=O)[C@@H](CC(C)C)N(C)C(=O)[C@@H](NC(=O)C(C)C)C(C)C)[C@@H](C)OC(=O)[C@H](Cc2ccc(OC)cc2)N(C)C(=O)[C@@H]2CCCN2C(=O)[C@H](CC(C)C)NC(=O)[C@H](C(C)C)OC(=O)C[C@@H]1O [8V9ISHPL1, [Hiv]^3-[Val]^8-[Isobutyryl]^9-didemnin A] (Isobutyryl-V[dNMeL]T[X2][Hiv]LP[NMeY](Me); ester 3-C)	9.46	9.46
CC[C@H](C)[C@H]1NC(=O)[C@@H](NC(=O)[C@@H](CC(C)C)N(C)C(=O)[C@@H](N)C(C)C)[C@@H](C)OC(=O)[C@H](Cc2ccc(OC)cc2)N(C)C(=O)[C@@H]2CCCN2C(=O)[C@H](CC(C)C)NC(=O)[C@H](C(C)C)OC(=O)C[C@@H]1O [8VSHPL1, [Hiv]^3-[Val]^8-didemnin A] (H-V[dNMeL]T[X2][Hiv]LP[NMeY](Me); ester 3-C)	1.01	1.01
CC[C@H](C)[C@H]1NC(=O)[C@@H](NC(=O)[C@@H](CC(C)C)N(C)C(=O)[C@@H](NC(=O)OC(C)(C)C)C(C)C)[C@@H](C)OC(=O)[C@H](Cc2ccc(OC)cc2)N(C)C(=O)[C@@H]2CCCN2C(=O)[C@H](CC(C)C)NC(=O)[C@H](C(C)C)OC(=O)C[C@@H]1O [8VSHPL2, [Hiv]^3-[Boc-Val]^8-didemnin A] (Boc-V[dNMeL]T[X2][Hiv]LP[NMeY](Me); ester 3-C)	9.21	9.21
CC[C@H](C)[C@H]1NC(=O)[C@@H](NC(=O)[C@@H](CC(C)C)N(C)C(=O)[C@@H]2CCCN2C(=O)[C@H](C)NC(=O)OC(C)(C)C)[C@@H](C)OC(=O)[C@H](Cc2ccc(OC)cc2)N(C)C(=O)[C@@H]2CCCN2C(=O)[C@H](CC(C)C)NC(=O)[C@H](C(C)C)OC(=O)C[C@@H]1O [9BASHPL2, [Hiv]^3-[Boc-Ala]^9-aplidine] (Boc-AP[dNMeL]T[X2][Hiv]LP[NMeY](Me); ester 4-C)	8.65	8.65
CC[C@H](C)[C@H]1NC(=O)[C@@H](NC(=O)[C@@H](CC(C)C)N(C)C(=O)[C@@H]2CCCN2C(=O)C(C)C)[C@@H](C)OC(=O)[C@H](Cc2ccc(OC)cc2)N(C)C(=O)[C@@H]2CCCN2C(=O)[C@H](CC(C)C)NC(=O)[C@H](C(C)C)OC(=O)C[C@@H]1O [9ISHPL1, [Hiv]^3-[Isobutyryl]^9-aplidine] (Isobutyryl-P[dNMeL]T[X2][Hiv]LP[NMeY](Me); ester 3-C)	0.474	0.474
CC[C@H](C)[C@H]1NC(=O)[C@@H](NC(=O)[C@@H](CC(C)C)N(C)C(=O)[C@@H]2CCCN2C(=O)C(C)C)[C@@H](C)OC(=O)[C@H](Cc2ccc(OC)cc2)N(C)C(=O)[C@@H]2CCCN2C(=O)[C@H](CC(C)C)NC(=O)[C@H](C(C)C)NC(=O)C[C@@H]1O [9ISVPL1, [Val]^3-[Isobutyryl]^9-aplidine] (Isobutyryl-P[dNMeL]T[X2]VLP[NMeY](Me); ester 3-C)	0.475	0.475
CC[C@H](C)[C@H]1NC(=O)[C@@H](NC(=O)[C@@H](CC(C)C)N(C)C(=O)C2CCCN2C(=O)[C@@H](C)O)[C@@H](C)OC(=O)[C@H](Cc2ccc(OC)cc2)N(C)C(=O)[C@@H]2CCCN2C(=O)[C@H](CC(C)C)NC(=O)[C@H](C(C)C)OC(=O)C[C@@H]1O (stereo partly drawn) [9LSHPL1(D), [Hiv]^3-[D-Lac]^9-aplidine] (H-[dLac][ξP][dNMeL]T[X2][Hiv]LP[NMeY](Me); ester 4-C)	0.947	0.947
CC[C@H](C)[C@H]1NC(=O)[C@@H](NC(=O)[C@@H](CC(C)C)N(C)C(=O)C2CCCN2C(=O)[C@H](C)O)[C@@H](C)OC(=O)[C@H](Cc2ccc(OC)cc2)N(C)C(=O)[C@@H]2CCCN2C(=O)[C@H](CC(C)C)NC(=O)[C@H](C(C)C)OC(=O)C[C@@H]1O (stereo partly drawn) [9LSHPL1(L), [Hiv]^3-[L-Lac]^9-aplidine, reference compound] (H-[Lac][ξP][dNMeL]T[X2][Hiv]LP[NMeY](Me); ester 4-C)	0.947	0.947
CC[C@H](C)[C@H]1NC(=O)[C@@H](NC(=O)[C@@H](CC(C)C)N(C)C(=O)C2CCCN2C(=O)[C@H](C)O[Si](C)(C)C(C)(C)C)[C@@H](C)OC(=O)[C@H](Cc2ccc(OC)cc2)N(C)C(=O)[C@@H]2CCCN2C(=O)[C@H](CC(C)C)NC(=O)[C@H](C(C)C)OC(=O)C[C@@H]1O (stereo partly drawn) [9LSHPL2(L), [Hiv]^3-[L-Lac(OTBDMS)]^9-aplidine] (X3-[ξP][dNMeL]T[X2][Hiv]LP[NMeY](Me); ester 3-C)	8.55	8.55
CC[C@H](C)[C@H]1NC(=O)[C@@H](NC(=O)[C@@H](CC(C)C)N(C)C(=O)C2CCCN2C(=O)[C@H](C)O)[C@@H](C)OC(=O)[C@H](Cc2ccc(OC)cc2)N(C)C(=O)[C@@H]2CCCN2C(=O)[C@H](CC(C)C)NC(=O)[C@H](C(C)C)NC(=O)C[C@@H]1O (stereo partly drawn) [9LSVPL1(L), [Val]^3-[L-Lac]^9-aplidine] (H-[Lac][ξP][dNMeL]T[X2]VLP[NMeY](Me); ester 4-C)	0.948	0.948
